The values below come from ChEMBL document CHEMBL5260858, “Targeting mycobacterial membranes and membrane proteins: Progress and limitations” (Bioorg Med Chem, 2023).

Converted amounts (≈) assume the structure as drawn.

Test [1] relates to Mycobacterium tuberculosis variant bovis. In words: Antitubercular activity against Mycobacterium bovis BCG infected in mouse J774.A1 cells assessed as reduction in intracellular bacterial load incubated for 6 days. It is filed as functional. The conditions noted are these: 144 h, time 6 day.
Test [2] has the same test system. Briefly: Antitubercular activity against Mycobacterium bovis BCG assessed as bacterial growth inhibition incubated for 14 days by agar plate method. It is filed as functional. The note with it: 336 h, time 14 day.
Test [3] shares this test system. In words: Antitubercular activity against Mycobacterium bovis BCG assessed as minimum bactericidal concentration for 99.9% activity. It is filed as functional. The conditions noted are these: read-out: MBC99.9.
The test system is the same in test [4]. In words: Antitubercular activity against Mycobacterium bovis BCG assessed as bacterial growth inhibition. The class given is functional.
Test [5] shares this test system. Briefly: Antitubercular activity against Mycobacterium bovis assessed as bacterial growth inhibition. It is filed as functional.
For test [6] the test system is unchanged. Briefly: Antitubercular activity against Mycobacterium bovis BCG assessed as bacterial growth inhibition incubated for 24 hrs by [14C]-acetate labelling based radiometric analysis. The class given is functional.
The test system is the same in test [7]. In words: Inhibition of mycolic acid biosynthesis in Mycobacterium bovis BCG assessed as decrease in keto-mycolic acid in presence of 14C-labeled acetic acid incubated for 60 mins by photo-stimulated luminescence analysis. The class given is functional, organism-based. The conditions noted are these: 1 h.
The test system is the same in test [8]. Briefly: Inhibition of mycolic acid biosynthesis in Mycobacterium bovis BCG assessed as decrease in methoxy-mycolic acid in presence of 14C-labeled acetic acid incubated for 60 mins by photo-stimulated luminescence analysis. The note with it: 1 h. It is filed as functional, organism-based.
For test [9] the test system is unchanged. In words: Antitubercular activity against Mycobacterium tuberculosis variant bovis assessed as bacterial growth inhibition. The class given is functional.

Consider `COC(=O)c1c(NC(=O)c2c(F)c(F)c(F)c(F)c2F)sc2c1CCCCC2`, for which the MIC in [1] came to 12.8 µM (≈ 5.37 µg/mL). With `Cc1cc2oc(=O)cc(-c3cccc(N)c3)c2c(C)c1-c1ccc(CN2CCOCC2)cc1`, the minimum inhibitory concentration (MIC) in [2] came to 0.71 µM (≈ 0.313 µg/mL). Consider `CCCCCCCCn1cc(CN2CCCCCC2)c2c(F)cccc21`, for which the MBC in test [3] worked out at 12 µM (≈ 4.3 µg/mL). For the same molecule, the MIC50 in [4] was 0.3 µM (≈ 0.108 µg/mL). The like results for `CCCCCCCCn1cc(CN2CCC3(CC2)OCCCO3)c2ccc(OC)cc21` were, in that order, 1.2 µM (≈ 0.514 µg/mL) and 0.3 µM (≈ 0.129 µg/mL).

As for `COc1cccc2ccn(CCCCC[P+](c3ccccc3)(c3ccccc3)c3ccccc3)c12`, the MIC50 in [5] is 2 µM.

With `CCc1ccc([C@H]2C[C@@H](C(F)(F)F)n3ncc(C(=O)NCc4ccc5c(c4)OCO5)c3N2)cc1`, the minimal inhibitory concentration (MIC) in [6] amounted to 0.8 µM (≈ 0.378 µg/mL). Consider `O=[N+]([O-])c1cccc2c1ccn2CCCCC[P+](c1ccccc1)(c1ccccc1)c1ccccc1`, for which the MIC50 in [5] was 3 µM. Turning to `CCc1ccc([C@H]2C[C@@H](C(F)(F)F)n3ncc(C(=O)NCc4ccc(OC)cc4)c3N2)cc1`, the MIC in test [6] amounted to 0.3 µM (≈ 0.138 µg/mL). On to `COC(=O)c1c(NC(=O)c2c(F)c(F)c(F)c(F)c2F)sc(C(N)=O)c1C`, for which, in test [1], the minimum inhibitory concentration (MIC) turned out to be 6.4 µM (≈ 2.61 µg/mL). With `C[C@@]1(COc2ccc(N3CCC(Oc4ccc(OC(F)(F)F)cc4)CC3)cc2)Cn2cc([N+](=O)[O-])nc2O1`, the concentration for half-maximal inhibition (IC50) in test [7] stood at 0.69 µg/mL; in [8] it was 0.63 µg/mL. For the molecule `COc1nc2ccc(Br)cc2cc1[C@@H](c1ccccc1)[C@@](O)(CCN(C)C)c1cccc2ccccc12` [BEDAQUILINE], the minimal inhibitory concentration (MIC) in [5] was found to be 0.003 µg/mL (≈ 5.4 nM). For the molecule `NNC(=O)c1ccncc1` [ISONIAZID], the concentration for half-maximal inhibition (IC50) in [7] is 0.021 µg/mL; in [8] it was 0.036 µg/mL. As to `CCc1nc2ccc(Cl)cn2c1C(=O)NCc1ccc(N2CCC(c3ccc(OC(F)(F)F)cc3)CC2)cc1` [TELACEBEC], the minimum inhibitory concentration (MIC) in [9] was determined as 0.0035 µM (≈ 0.00195 µg/mL).
